According to ChEMBL document CHEMBL2311396, “Xanthone derivatives as potential inhibitors of miRNA processing by human Dicer: targeting secondary structures of pre-miRNA by small molecules” (Bioorg Med Chem Lett, 2013):
Active and inactive are the calls of the source. The calls are words filed in the database; no cut-off is given here.

Key:
[1] = target: Endoribonuclease Dicer (Homo sapiens) (UniProt Q9UPY3); assay: Inhibition of human recombinant Dicer-mediated long dsRNA digestion assessed as 21- to 23-mer short RNA formation at 200 uM after 3 hrs by denaturing-PAGE analysis
[2] = target: Endoribonuclease Dicer (Homo sapiens) (UniProt Q9UPY3); assay: Inhibition of human recombinant Dicer-mediated pre-miR-29a processing assessed as reduction of mature miR-29a formation at 200 uM after 3 hrs by Northern blot analysis
[3] = target: Endoribonuclease Dicer (Homo sapiens) (UniProt Q9UPY3); assay: Inhibition of human recombinant Dicer-mediated pre-miR-29a without internal loop processing assessed as reduction of mature miR-29a formation by Northern blot analysis (reference value: 30%); details: concentration not given here
[4] = target: Endoribonuclease Dicer (Homo sapiens) (UniProt Q9UPY3); assay: Inhibition of human recombinant Dicer-mediated pre-miR-29a without bulge loop processing assessed as reduction of mature miR-29a formation by Northern blot analysis (reference value: 51%); details: concentration not given here
[5] = target: Endoribonuclease Dicer (Homo sapiens) (UniProt Q9UPY3); assay: Inhibition of human recombinant Dicer-mediated pre-miR-29a processing assessed as reduction of mature miR-29a formation by Northern blot analysis (reference value: 41%); details: concentration not given here

Chain of Endoribonuclease Dicer (Homo sapiens) (Q9UPY3 whole entry): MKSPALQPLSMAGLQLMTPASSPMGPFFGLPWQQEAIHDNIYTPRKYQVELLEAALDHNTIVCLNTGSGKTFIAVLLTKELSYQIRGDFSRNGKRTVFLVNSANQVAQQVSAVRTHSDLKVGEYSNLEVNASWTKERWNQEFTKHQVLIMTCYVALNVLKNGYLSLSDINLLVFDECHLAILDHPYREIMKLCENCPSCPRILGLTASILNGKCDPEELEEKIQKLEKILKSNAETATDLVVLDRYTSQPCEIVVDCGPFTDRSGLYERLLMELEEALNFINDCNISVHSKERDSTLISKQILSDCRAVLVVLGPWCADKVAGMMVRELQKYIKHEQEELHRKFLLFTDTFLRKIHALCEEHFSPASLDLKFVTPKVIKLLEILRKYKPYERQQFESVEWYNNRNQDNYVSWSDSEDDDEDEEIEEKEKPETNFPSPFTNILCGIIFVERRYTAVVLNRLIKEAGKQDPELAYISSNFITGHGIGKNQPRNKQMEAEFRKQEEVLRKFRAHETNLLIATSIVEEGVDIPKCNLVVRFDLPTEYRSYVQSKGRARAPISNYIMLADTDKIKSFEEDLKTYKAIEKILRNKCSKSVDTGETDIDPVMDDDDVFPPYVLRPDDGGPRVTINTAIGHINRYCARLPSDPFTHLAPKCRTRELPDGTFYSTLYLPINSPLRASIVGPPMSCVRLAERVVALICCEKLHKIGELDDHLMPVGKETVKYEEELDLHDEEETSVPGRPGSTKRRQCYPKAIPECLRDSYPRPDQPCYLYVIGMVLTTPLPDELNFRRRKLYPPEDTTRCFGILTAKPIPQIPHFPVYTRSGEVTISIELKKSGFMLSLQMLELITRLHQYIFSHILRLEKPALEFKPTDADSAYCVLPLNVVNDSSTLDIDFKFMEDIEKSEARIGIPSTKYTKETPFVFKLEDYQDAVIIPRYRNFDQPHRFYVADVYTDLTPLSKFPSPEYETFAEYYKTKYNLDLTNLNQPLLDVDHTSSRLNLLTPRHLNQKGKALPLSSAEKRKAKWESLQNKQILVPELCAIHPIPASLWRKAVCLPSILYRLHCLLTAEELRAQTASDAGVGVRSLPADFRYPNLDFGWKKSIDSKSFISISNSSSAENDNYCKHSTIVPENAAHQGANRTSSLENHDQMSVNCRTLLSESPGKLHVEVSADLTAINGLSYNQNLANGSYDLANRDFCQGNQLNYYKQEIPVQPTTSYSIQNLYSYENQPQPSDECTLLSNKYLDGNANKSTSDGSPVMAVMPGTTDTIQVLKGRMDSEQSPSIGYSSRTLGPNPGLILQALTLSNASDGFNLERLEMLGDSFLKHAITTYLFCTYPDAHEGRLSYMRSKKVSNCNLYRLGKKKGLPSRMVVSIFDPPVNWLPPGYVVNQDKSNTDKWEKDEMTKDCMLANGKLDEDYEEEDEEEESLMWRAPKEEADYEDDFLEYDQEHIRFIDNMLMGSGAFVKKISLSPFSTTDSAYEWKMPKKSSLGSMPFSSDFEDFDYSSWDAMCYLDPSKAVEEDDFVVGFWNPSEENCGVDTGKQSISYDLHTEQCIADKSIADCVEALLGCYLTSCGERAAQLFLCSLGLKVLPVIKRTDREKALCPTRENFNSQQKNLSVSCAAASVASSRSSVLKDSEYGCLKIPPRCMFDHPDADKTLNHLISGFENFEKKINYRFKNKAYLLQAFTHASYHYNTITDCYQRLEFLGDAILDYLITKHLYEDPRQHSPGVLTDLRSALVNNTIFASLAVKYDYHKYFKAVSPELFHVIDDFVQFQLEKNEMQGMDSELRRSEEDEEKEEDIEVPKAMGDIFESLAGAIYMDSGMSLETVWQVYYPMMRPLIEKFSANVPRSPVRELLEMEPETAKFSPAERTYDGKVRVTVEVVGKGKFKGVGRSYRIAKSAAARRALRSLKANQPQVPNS

inhibition [1]	inhibition [2]	inhibition [3] [%]	inhibition [4] [%]	inhibition [5] [%]	Compound
inactive	Active	22	46	23	NCCOc1ccc2sc3ccc(OCCN)cc3c(=O)c2c1
inactive	Active	–	–	–	NCCOc1ccc2oc3ccc(OCCN)cc3c(=O)c2c1

Further lines, the compound ahead of its results:

Compound	inhibition [1]	inhibition [2]	inhibition [3] [%]	inhibition [4] [%]	inhibition [5] [%]
CN(C)CCOc1ccc2oc3ccc(OCCN(C)C)cc3c(=O)c2c1	inactive	inactive	–	–	–
CC(CN)Oc1ccc2oc3ccc(OC(C)CN)cc3c(=O)c2c1 (stereo not given)	inactive	inactive	–	–	–
CN(C)CCOc1ccc2sc3ccc(OCCN(C)C)cc3c(=O)c2c1	inactive	inactive	–	–	–
NCCCCCCOc1ccc2oc3ccc(OCCCCCCN)cc3c(=O)c2c1	inactive	inactive	–	–	–
